One block for each compound: values may come before it.
Legend:
[1] = Slurry conversion experiments (XRPD of isolated solids); format: physicochemical
Method: Slurry conversion experiments were conducted at RT in different solvent systems. About 15˜20 mg of freebase starting material (Compound 1) was suspended in 0.5 mL of solvent in an HPLC vial. Solids were isolated for XRPD analysis after magnetically stirring at RT.
Slurry at 5°. Slurry conversion experiments were conducted at 5° C. in different solvent systems. About 15˜20 mg of freebase starting material (Compound 1) was suspended in 0.5 mL of solvent in an HPLC vial. Solids were isolated for XRPD analysis after magnetically stirring at 5° C.
Slurry at 50°. Slurry conversion experiments were conducted at 50° C. in different solvent systems. About 20 mg of freebase starting material (Compound 1) was suspended in 0.5 mL of solvent in an HPLC vial. Solids were isolated for XRPD analysis after magnetical stirring at 50° C.
Slurry at RT for Compound A. Slurry conversion experiments were conducted at RT in different solvent systems. […] Solids were isolated for XRPD analysis after magnetic stirring at RT.
Slurry at 50° for Compound A. Slurry conversion experiments were conducted at 50° C. in different solvent systems. […] Solids were isolated for XRPD analysis after magnetic stirring at 50° C.

[2] = Summary of polymorph screening experiments, total over all methods; format: physicochemical
Method: A total of 64 polymorph screening experiments were performed for freebase Compound 1 using the sample received as starting material through different crystallization methods. As a result, Form A was obtained from polymorph screening.
Results summarized in Table 40 were used to guide the solvent selection in polymorph screening of adipate.

[3] = Slow evaporation; format: physicochemical
Method: Slow evaporation. Slow evaporation experiments were performed under 10 conditions. Briefly, about 15˜20 mg of freebase starting material (810935-01-A) was dissolved in 0.5˜1.0 mL of solvent in a 3-mL glass vial.
Slow evaporation Compound A. Slow evaporation experiments were performed under seven conditions.

[4] = Liquid vapor diffusion; format: physicochemical
Method: (§1) Liquid vapor diffusion. Liquid vapor diffusion experiments were conducted in different solvent systems. […] This solution was then placed into a 20-mL vial with 3 mL of corresponding anti-solvent. The 20-mL vial was sealed with a cap and kept at RT allowing sufficient time for organic vapor to interact with the solution. The precipitates were isolated for XRPD analysis.
as §1, with “diffusion Compound A.” for “diffusion.”

[5] = Anti-solvent addition; format: physicochemical
Method: Anti-solvent addition. A total of 12 anti-solvent addition experiments were carried out. […] The obtained precipitate was isolated for XRPD analysis.
Anti-solvent addition Compound A. A total of 14 anti-solvent addition experiments were carried out. […] The obtained precipitate was isolated for XRPD analysis.

[6] = Moisture absorption observed during XRPD test; format: physicochemical
Method: Compound E Form A was obtained from acetone system. Limited solids were observed after stirring at 5° C. […] The suspension was transferred to −20° C., but limited solids were still observed. Anti-solvent (n-heptane) was added and the sample was transferred to 5° C. However, gel was obtained.

[7] = Overall summary of solid form stability; settings: compared with the other identified salt forms
Source text: Overall Summary. […] The amorphous form is considered for development purposes to be unstable for further development.

[8] = VH-XRPD analysis / transitions of forms at varying relative humidity; format: physicochemical
Source text: FIG. 19. The sample then reverts to the original form upon reaching 30% RH. […] Transitions of Forms of Compound A at varying RH.

[9] = Solid vapor diffusion; format: physicochemical; settings: adipate polymorph screening summary; Solid Vapor Diffusion
Method: Solid vapor diffusion Compound A. Solid vapor diffusion experiments were conducted using 12 different solvents. […] The 20-mL vial was sealed with a cap and kept at RT allowing solvent vapor to interact with the sample.

[10] = Slow cooling; format: physicochemical; settings: adipate polymorph screening summary; Slow Cooling
Method: Slow cooling Compound A. Slow cooling experiments were conducted in four solvent systems. […] The suspension was then heated to 50° C., equilibrated for about 2 hr and filtered to a new vial using a seal membrane (PTFE, pore size of 0.45 μm). Filtrates were slowly cooled down to 5° C. at a rate of 0.1° C./min. The obtained solids were kept isothermal at 5° C. before isolation for XRPD analysis.

Slurry conversion result (XRPD form) ([1]; 5° C., different solvent systems): Form A and amorphous were obtained
Slurry conversion result (XRPD form) ([1]; 50° C., H2O): Amorphous
Slurry conversion result (XRPD form) ([1]; 50° C., different solvent systems): amorphous was obtained
Slurry conversion result (XRPD form) ([1]; 50° C., n-Heptane): Amorphous
Slurry conversion result (XRPD form) ([1]; RT, different solvent systems): Form A and amorphous were obtained
Result ([1]; freebase polymorph screening summary, Slurry at RT/5 °C/50 °C): Form A, amorphous, gel,
Result ([1]; freebase slurry at 5° C., 2-MeTHF/n-Heptane, 1:3): Gel
Result ([1]; freebase slurry at 5° C., ACN): Form A
Result ([1]; freebase slurry at 5° C., DMAc/n-Heptane, 1:3): Gel
Result ([1]; freebase slurry at 5° C., DMF/H2O, 1:3): Amorphous
Result ([1]; freebase slurry at 5° C., Ethyl lactate/H2O, 1:3): Gel
Result ([1]; freebase slurry at 5° C., IPAc/n-Heptane, 1:3): Amorphous
Result ([1]; freebase slurry at 5° C., MIBK/n-Heptane, 1:3): Gel
Result ([1]; freebase slurry at 5° C., NMP/H2O, 1:4): Amorphous
Result ([1]; freebase slurry at 5° C., Xylene/n-Heptane, 1:3): Amorphous
Result ([1]; freebase slurry at RT, 1,4-Dioxane/H2O, 1:4): Amorphous
Result ([1]; freebase slurry at RT, ACN): Form A
Result ([1]; freebase slurry at RT, ACN/H2O, 1:1): Form A (Low crystallinity)
Result ([1]; freebase slurry at RT, Acetone/H2O, 1:4): Form A
Result ([1]; freebase slurry at RT, Anisole/n-Heptane, 1:4): Gel
Result ([1]; freebase slurry at RT, Benzyl alcohol/n-Heptane, 1:4): Gel
Result ([1]; freebase slurry at RT, CPME/Cyclohexane, 1:4): Amorphous
Result ([1]; freebase slurry at RT, DCM/n-Heptane, 1:4): Form A
Result ([1]; freebase slurry at RT, EtOAc/Cyclohexane, 1:4): Amorphous
Result ([1]; freebase slurry at RT, EtOH): Form A
Result ([1]; freebase slurry at RT, EtOH/H2O, 1:1): Form A
Result ([1]; freebase slurry at RT, IPA): Form A (Low crystallinity)
Result ([1]; freebase slurry at RT, MEK/Cyclohexane, 1:4): Amorphous
Result ([1]; freebase slurry at RT, MTBE): Gel
Result ([1]; freebase slurry at RT, THF/n-Heptane, 1:4): Form A
Result ([1]; freebase slurry at RT, Toluene/Cyclohexane, 1:4): Amorphous
Result ([2]; freebase polymorph screening summary): Form A, amorphous, gel, clear
Result ([3]; freebase polymorph screening summary, Slow Evaporation): Form A, amorphous, gel
Result ([3]; freebase, evaporation at RT, 2-MeTHF): Gel
Result ([3]; freebase, evaporation at RT, ACN): Form A
Result ([3]; freebase, evaporation at RT, Acetone): Form A
Result ([3]; freebase, evaporation at RT, DCM): Form A (Low crystallinity)
Result ([3]; freebase, evaporation at RT, EtOAc): Amorphous
Result ([3]; freebase, evaporation at RT, EtOH): Form A
Result ([3]; freebase, evaporation at RT, IPAc): Gel
Result ([3]; freebase, evaporation at RT, MEK): Amorphous
Result ([3]; freebase, evaporation at RT, MeOH): Amorphous
Result ([3]; freebase, evaporation at RT, THF): Amorphous
Result ([4]; freebase polymorph screening summary, Liquid Vapor Diffusion): Form A, amorphous, gel, clear
Result ([4]; freebase, RT, solvent 1.4-Dioxane, anti-solvent n-Heptane): Gel
Result ([4]; freebase, RT, solvent 2-Butanol, anti-solvent n-Heptane): Gel
Result ([4]; freebase, RT, solvent ACN, anti-solvent H2O): Form A
Result ([4]; freebase, RT, solvent Acetone, anti-solvent n-Pentane): Form A
Result ([4]; freebase, RT, solvent Anisole, anti-solvent n-Pentane): Gel
Result ([4]; freebase, RT, solvent CPME, anti-solvent n-Pentane): Gel
Result ([4]; freebase, RT, solvent DMF, anti-solvent H2O): Clear solution
Result ([4]; freebase, RT, solvent DMSO, anti-solvent H2O): Amorphous
Result ([4]; freebase, RT, solvent EtOAc, anti-solvent n-Pentane): Gel
Result ([4]; freebase, RT, solvent IPAc, anti-solvent n-Heptane): Amorphous
Result ([4]; freebase, RT, solvent THF, anti-solvent H2O): Form A (Low crystallinity)
Result ([4]; freebase, RT, solvent Toluene, anti-solvent n-Heptane): Gel
Result ([4]; freebase, RT, solvent Xylene, anti-solvent n-Pentane): Gel
Result ([5]; freebase polymorph screening summary, Anti-solvent Addition): Form A, amorphous, gel,
Result ([5]; freebase, solvent 1.4-Dioxane, anti-solvent H2O): Gel
Result ([5]; freebase, solvent ACN, anti-solvent n-Heptane): Form A (Low
Result ([5]; freebase, solvent Acetone, anti-solvent n-Heptane): Form A (Low
Result ([5]; freebase, solvent Anisole, anti-solvent Cyclohexane): Gel
Result ([5]; freebase, solvent CPME, anti-solvent n-Heptane): Amorphous
Result ([5]; freebase, solvent DCM, anti-solvent Cyclohexane): Form A (Low
Result ([5]; freebase, solvent DMSO, anti-solvent H2O): Low crystallinity
Result ([5]; freebase, solvent EtOAc, anti-solvent n-Heptane): Amorphous
Result ([5]; freebase, solvent MEK, anti-solvent Cyclohexane): Gel
Result ([5]; freebase, solvent MeOH, anti-solvent H2O): Amorphous
Result ([5]; freebase, solvent THF, anti-solvent H2O): Form A (Low
Result ([5]; freebase, solvent Toluene, anti-solvent n-Heptane): Amorphous
Compound: C=CC(=O)N1CCN(c2nc(OC[C@@H]3CCCN3C)nc3c(F)c(-c4nc(N)cc(C)c4C(F)(F)F)c(Cl)cc23)[C@@H](C)C1 (atropisomer, axis not shown) [Compound 1, 1-((S)-4-((R)-7-(6-amino-4-methyl-3-(trifluoromethyl)pyridin-2-yl)-6-chloro-8-fluoro-2-(((S)-1-methylpyrrolidin-2-yl)methoxy)quinazolin-4-yl)-3-methylpiperazin-1-yl)prop-2-en-1-one]

Compound: C=CC(=O)N1CCN(c2nc(OC[C@@H]3CCCN3C)nc3c(F)c(-c4nc(N)cc(C)c4C(F)(F)F)c(Cl)cc23)[C@@H](C)C1.CS(=O)(=O)O (atropisomer, axis not shown) [Compound E Form A]
Moisture behaviour of the sample during XRPD test [6]: tended to absorb moisture and turn to liquid

Stability of the form for further development [7]: most stable form
RH at which sample reverts to the original form (VH-XRPD) [8]: 30 % RH
RH at which small changes appear in VH-XRPD ([8]; changes remain up until 80% RH): 44-46 % RH
Compound: C=CC(=O)N1CCN(c2nc(OC[C@@H]3CCCN3C)nc3c(F)c(-c4nc(N)cc(C)c4C(F)(F)F)c(Cl)cc23)[C@@H](C)C1 [Compound A]

Result [9]: Compound A Form A
Result ([1]; adipate polymorph screening summary, Slurry at RT/50° C.): Compound A Form A, gel, clear
Result ([2]; adipate polymorph screening summary): Compound A Form A, Compound A Form
Result ([3]; adipate polymorph screening summary, Slow Evaporation): Gel, clear
Result ([4]; adipate polymorph screening summary, Liquid Vapor Diffusion): Amorphous, clear, gel
Result [10]: Compound A Form A
Result ([5]; adipate polymorph screening summary, Anti-solvent Addition): Compound A Form A, B, clear, gel
Compound: C=CC(=O)N1CCN(c2nc(OC[C@@H]3CCCN3C)nc3c(F)c(-c4nc(N)cc(C)c4C(F)(F)F)c(Cl)cc23)[C@@H](C)C1.O=C(O)CCCCC(=O)O [adipate]

Source: patent publication US12565485B2, “Solid forms of 1-((S)-4-((R)-7-(6-amino-4-methyl-3-(trifluoromethyl)pyridin-2-yl)-6-chloro-8-fluoro-2-(((s)-1-methylpyrrolidin-2-yl)methoxy)quinazolin-4-yl)-3-methylpiperazin-1-yl)prop-2-en-1-one” (Genentech, Inc., priority 2022, dated 2026)
